Test results: publication PMC11124870, “Effect of Antioxidants in Medicinal Products on Intestinal Drug Transporters” (Pharmaceutics, 2024)
“And” between values parts separate entries of the source, which are not always exact repeats. Equal entries are not always repeated.

What was measured:
OATP2B1 [1] = target: T1, OATP2B1 (Homo sapiens, UniProt O94956); assay: 3H-valsartan uptake inhibition in HEK-293-OATP2B1 cells; settings: IC50 OATP2B1, valsartan uptake, substrate 3H-valsartan, three independent experiments
T1 sequence (O94956 1-709): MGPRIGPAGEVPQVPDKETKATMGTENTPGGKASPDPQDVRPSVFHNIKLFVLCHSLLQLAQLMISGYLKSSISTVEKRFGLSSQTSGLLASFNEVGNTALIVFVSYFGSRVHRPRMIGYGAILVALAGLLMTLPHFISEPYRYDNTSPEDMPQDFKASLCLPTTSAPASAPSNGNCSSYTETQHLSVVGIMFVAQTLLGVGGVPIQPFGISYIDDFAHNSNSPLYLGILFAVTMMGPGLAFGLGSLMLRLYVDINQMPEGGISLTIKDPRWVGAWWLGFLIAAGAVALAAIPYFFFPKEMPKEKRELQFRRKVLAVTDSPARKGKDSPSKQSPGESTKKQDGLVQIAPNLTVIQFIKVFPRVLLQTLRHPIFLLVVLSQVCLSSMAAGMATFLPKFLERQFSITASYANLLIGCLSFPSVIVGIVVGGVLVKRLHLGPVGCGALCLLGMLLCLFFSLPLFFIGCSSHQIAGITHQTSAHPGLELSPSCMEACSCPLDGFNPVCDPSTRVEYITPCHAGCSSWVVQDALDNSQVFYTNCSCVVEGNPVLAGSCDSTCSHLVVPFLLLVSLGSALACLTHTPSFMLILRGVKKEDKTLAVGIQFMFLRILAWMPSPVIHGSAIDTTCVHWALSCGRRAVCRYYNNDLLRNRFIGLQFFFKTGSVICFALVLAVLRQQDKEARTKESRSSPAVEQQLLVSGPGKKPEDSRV
Protocol: The uptake transporter assay was performed as reported previously with minor modifications [15]. A day before the uptake assay, Isoplate 96-well plates were coated with poly-D-lysine in PBS with calcium and magnesium and washed with PBS. […] An assay mixture of ^3H-estrone sulfate, a known inhibitor of OATP2B1, or an antioxidant was prepared and incubated in a 37 °C incubator for 10 min. The cells were washed with ice-cold HBSS three times and incubated with MicroScint fluid on a shaker for 1 h for cell lysis. Radioactivity was measured by liquid scintillation counting with a MicroBeta^2® microplate counter. […] On the day of experiment, cells were washed twice with 0.4 mL of HBSS per well and then pre-incubated for 10–20 min in 0.4 mL of HBSS. […] Uptake of ^3H-valsartan was stopped after 15 min by washing three times with ice-cold HBSS. Cells were lysed in 750 µL of lysis buffer (0.1 N NaOH and 0.1% SDS in double-distilled water) per well while shaking for 60 min. A total of 690 µL of the lysate from each well was then added to 2.5 mL of EcoLite scintillation fluid. The radioactivity was determined on a LS6500 Scintillation Counter (Beckman Coulter). Protein concentration was measured with a Pierce™ BCA protein assay kit. The radioactivity in each well was corrected for protein concentration. All values were determined in triplicate, and the final values are expressed as % uptake relative to negative control (1% DMSO).
Antioxidants were screened at a concentration of 200 μM.

[2] = Estimation of intestinal luminal concentration (Igut), dose/250 mL; settings: estimated from maximum oral amount (AP 10 mg, BHA 8 mg) in 250 mL intestinal fluid
Protocol: Igut is intestinal luminal concentration estimated as dose/250 mL. The Igut concentration was estimated using the following equation: Igut=A÷MW×V×10^6 where Igut is the estimated intestinal luminal concentration (µM), A is the amount of antioxidant in an oral dosage (mg), MW is the molecular weight, and V is the volume of intestinal fluid, i.e., 250 mL.

BCRP = target: T2, BCRP (Homo sapiens, UniProt Q9UNQ0); assay: Vesicular transport assay, 3H-CCK8 uptake in BCRP membrane vesicles; assay type: biochemical; set-up: purchased ThermoFisher Scientific GM0008; host or cells: Sf9 membrane vesicles; settings: for % Uptake of 3H-CCK8 BCRP: antioxidant 200 µM, uptake with DMSO set as 100%, mean ± SD, three replicates, membrane vesicles; for inhibition at 20 min, 200 µM: human, Sf9 membrane vesicles overexpressing human BCRP, pH 7, probe 3H-CCK8, 3H-CCK8
T2 sequence (Q9UNQ0 1-655): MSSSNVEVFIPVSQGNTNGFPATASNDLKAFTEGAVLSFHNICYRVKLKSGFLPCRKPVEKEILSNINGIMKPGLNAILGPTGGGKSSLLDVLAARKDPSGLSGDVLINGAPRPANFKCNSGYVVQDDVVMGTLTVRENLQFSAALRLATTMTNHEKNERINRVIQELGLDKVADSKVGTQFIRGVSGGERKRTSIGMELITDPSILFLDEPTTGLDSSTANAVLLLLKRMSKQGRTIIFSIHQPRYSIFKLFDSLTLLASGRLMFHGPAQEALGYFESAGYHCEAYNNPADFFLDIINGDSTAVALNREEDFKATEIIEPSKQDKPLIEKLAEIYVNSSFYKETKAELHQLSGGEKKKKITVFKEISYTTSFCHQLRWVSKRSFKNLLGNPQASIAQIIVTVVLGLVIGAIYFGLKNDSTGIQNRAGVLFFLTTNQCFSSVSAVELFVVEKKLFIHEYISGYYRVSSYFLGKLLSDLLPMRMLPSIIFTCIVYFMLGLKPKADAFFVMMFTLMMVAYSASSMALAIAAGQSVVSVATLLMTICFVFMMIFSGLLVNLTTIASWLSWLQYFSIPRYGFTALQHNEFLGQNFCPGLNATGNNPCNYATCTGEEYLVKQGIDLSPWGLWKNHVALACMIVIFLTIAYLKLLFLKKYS
Protocol: (§1) The vesicular transport assay was performed using Spodoptera frugiperda 9 (Sf9) membrane vesicles overexpressing human P-gp or BCRP, as reported previously with minor modifications. In brief, Isoplate 96-well flat-bottom white plates were preincubated with HBSS containing 0.5 mg/mL BSA on an orbital shaker in a 37 °C incubator at 90 rpm for 60 min followed by washing with HBSS. The assay mixture (75 µL/well) contained a probe substrate and either vehicle control, a known inhibitor of P-gp or BCRP, or an antioxidant, in vesicle uptake buffer (50 mM MOPS-Tris, pH 7.0 + 70 mM KCl + 7.5 mM MgCl2) prewarmed to 37 °C. After addition of the assay mixture, 5 μL/well (5 μg/μL stock concentration of the vesicles) of vesicles overexpressing human P-gp or BCRP was added. Uptake assays were initiated by adding 20 μL of either 25 mM adenosine triphosphate (ATP) or 25 mM adenosine monophosphate (AMP) to a final concentration of 5 mM. Plates were incubated at 37 °C for 20 min with orbital shaking (90 rpm). After 20 min, the uptake was quenched by adding 150 μL of ice-cold wash buffer (40 mM MOPS-Tris, pH 7.0 + 70 mM KCl) to each well, and the mixture was transferred to a 96-well filtration plate. Vacuum was applied, and the vesicles were washed three times with wash buffer. Vesicles were then lysed with 100 µL of MicroScint-20.

[3] = Table S1; source not stated; cited from earlier work
P-gp [4] = target: T3, P-gp (Homo sapiens, UniProt P08183); assay: Vesicular transport assay, 3H-NMQ uptake in P-gp membrane vesicles; assay type: biochemical; settings: for % Uptake of 3H-NMQ P-gp: antioxidant 200 µM, uptake with DMSO set as 100%, mean ± SD, three replicates, membrane vesicles; for inhibition at 20 min, 200 µM: human, Sf9 membrane vesicles overexpressing human P-gp, pH 7, probe 3H-NMQ, 3H-NMQ
T3 construct: purchased ThermoFisher Scientific GM0015; host or cells: Sf9 membrane vesicles
Protocol: as §1

OATP2B1 [5] = target: T1, OATP2B1; assay: Uptake transporter assay, 3H-estrone sulfate uptake in HEK-293-OATP2B1 cells; settings: for % Uptake of 3H-ES OATP2B1: antioxidant 200 µM, uptake with DMSO set as 100%, mean ± SD, three replicates, HEK-293-OATP2B1 cells
P-gp [6] = test system: P-gp; set-up: method as in PMID 19944162; settings: cited from earlier work

T3 sequence (P08183 whole entry): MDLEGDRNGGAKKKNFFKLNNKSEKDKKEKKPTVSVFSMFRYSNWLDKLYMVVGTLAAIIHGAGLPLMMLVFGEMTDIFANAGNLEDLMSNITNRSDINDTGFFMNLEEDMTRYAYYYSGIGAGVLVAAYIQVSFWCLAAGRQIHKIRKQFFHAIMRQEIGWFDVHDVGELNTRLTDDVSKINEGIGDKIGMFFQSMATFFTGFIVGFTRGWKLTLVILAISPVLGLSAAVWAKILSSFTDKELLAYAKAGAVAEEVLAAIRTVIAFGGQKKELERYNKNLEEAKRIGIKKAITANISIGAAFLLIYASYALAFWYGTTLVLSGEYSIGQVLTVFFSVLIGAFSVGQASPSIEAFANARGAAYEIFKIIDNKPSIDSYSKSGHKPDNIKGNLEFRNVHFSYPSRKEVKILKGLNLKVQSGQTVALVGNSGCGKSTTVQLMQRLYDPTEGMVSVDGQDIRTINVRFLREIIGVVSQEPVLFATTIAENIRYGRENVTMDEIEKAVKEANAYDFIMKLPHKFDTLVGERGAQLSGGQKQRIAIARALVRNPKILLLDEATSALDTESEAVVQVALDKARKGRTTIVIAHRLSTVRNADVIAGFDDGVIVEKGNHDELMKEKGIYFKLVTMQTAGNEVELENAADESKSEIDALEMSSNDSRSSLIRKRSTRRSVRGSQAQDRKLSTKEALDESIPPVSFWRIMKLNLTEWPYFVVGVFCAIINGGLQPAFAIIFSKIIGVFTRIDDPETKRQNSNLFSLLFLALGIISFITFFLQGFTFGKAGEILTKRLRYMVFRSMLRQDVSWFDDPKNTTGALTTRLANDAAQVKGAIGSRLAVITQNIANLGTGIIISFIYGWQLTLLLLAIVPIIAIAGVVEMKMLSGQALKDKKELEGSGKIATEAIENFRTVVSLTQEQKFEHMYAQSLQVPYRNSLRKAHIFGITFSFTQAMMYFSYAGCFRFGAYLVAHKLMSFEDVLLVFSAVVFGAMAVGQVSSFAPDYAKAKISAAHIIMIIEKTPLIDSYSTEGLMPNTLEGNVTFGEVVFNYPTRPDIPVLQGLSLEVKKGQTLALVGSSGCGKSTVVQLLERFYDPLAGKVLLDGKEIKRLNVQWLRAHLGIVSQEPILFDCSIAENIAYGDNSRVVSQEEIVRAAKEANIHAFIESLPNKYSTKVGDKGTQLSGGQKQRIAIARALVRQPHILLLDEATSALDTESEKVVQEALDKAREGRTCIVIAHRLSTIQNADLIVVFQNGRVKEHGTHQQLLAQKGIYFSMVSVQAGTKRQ

Structure (SMILES) | IC50 (OATP2B1 [1]) | Max Intestinal Conc (µM) in 250 mL Fluid [2] [µM] | % Uptake of 3H-CCK8 BCRP (BCRP) [%] | inhibition at 20 min, 200 µM (BCRP) [%] | LogP [3] | % Uptake of 3H-NMQ P-gp (P-gp [4]) [%] | inhibition at 20 min, 200 µM (P-gp [4]) [%] | IC50 (OATP2B1 [5]; IC50 OATP2B1, substrate 3H-estrone sulfate, mean ± SD of three independent experiments) [µM] | IC50 (OATP2B1 [5]; IC50 with preincubation, OATP2B1 expressing cells pre-incubated 30 minutes, mean ± SD of three independent experiments) [µM] | Effect of 30 min pre-incubation on inhibition potency (OATP2B1 [5]; OATP2B1-expressing cells pre-incubated for 30 min) | % Uptake of 3H-ES OATP2B1 (OATP2B1 [5]) [%] | IC50 at 10 min (OATP2B1 [5]; human, HEK-293 cells that express OATP2B1, probe 3H-estrone sulfate, IC50 without preincubation, OATP2B1 expressing cells, mean ± SD of three independent experiments) [µM] | inhibition at 10 min, 200 µM (OATP2B1 [5]; human, HEK-293 cells that express OATP2B1, probe 3H-estrone sulfate, Inhibition of OATP2B1, 200 µM, 3H-estrone sulfate) [%] | P-gp inhibition in ATPase assays (P-gp [6]) | inhibition at 10 min, 200 µM (OATP2B1 [5]; human, HEK-293 cells that express OATP2B1, probe 3H-estrone sulfate) [%]
CCCCCCCCCCCCCCCC(=O)OC[C@H](O)[C@H]1OC(=O)C(O)=C1O [Ascorbyl palmitate (AP), Ascorbyl palmitate] | 26 µM and 25.5 µM | 96.5 | 50.9 ± 9.9 | < 50 | 6 | 86.9 ± 12.4 | < 50 | 23 ± 10 | 95 ± 11.7 | did not further affect their inhibition potency | 28.3 ± 11.2 | 159 ± 65.9 | > 50 | – | –
CC(C)c1cc2c(c(O)c1O)[C@@]1(C(=O)O)CCCC(C)(C)[C@@H]1CC2 [Carnosic acid] | – | – | 4.5 ± 4.8 | ≥ 50 | 4.9 | 0.0 ± 10.1 | ≥ 50 | – | – | – | 18.8 ± 5.6 | – | – | identified as a P-gp inhibitor | ≥ 50
